Results on 2 compounds are retold here after patent US20240226072A1 (Stichting Het Nederlands Kanker Instituut, priority 2022, published 2024).

One data set can be described thus: in vivo. As for the experimental part:
Male wild-type, Oatp1a/1b^−/−, transgenic OATP1B1 and OATP1B3 mice in an Oatp1a/1b^−/− background, Oatp1a/1b/2b1b^−/−, Ces1b^−/− and Ces1cdeb^−/− mice were used.
The Accord (20 mg/mL) formulation contains polysorbate 80, citric acid and 395 mg/mL anhydrous ethanol. […] The stock solution was further diluted 5-fold with water to obtain a 2.5 mg/mL dosing solution for oral administration. The vehicle solution only consisted of polysorbate 80, ethanol and water (1:1:8, v/v/v). All dosing solutions were prepared freshly on the day of the experiment.
The termination time point was at 2 hours and 15 minutes. […] The termination, organ collection and sample pretreatment were as described above.
Non-compartmental analysis was performed to estimate the pharmacokinetic parameters by using the software package PK solutions 2.0.2 (SUMMIT, Research Service). The linear trapezoidal rule without extrapolating to infinity was used to calculate the area under the curve (AUC) of the plasma-concentration time curve for all the compounds. The peak plasma concentration (Cmax) and the time to reach peak plasma concentration (Tmax) were obtained directly from the individual raw data. […] GraphPad Prism 9 (GraphPad Software Inc., La Jolla, CA) was used for the statistical analysis and the preparation of the graphs. […]

Data set [1] in a line: Carboxylesterase pharmacokinetic experiment: oral cabazitaxel 10 mg/kg, 2 h, in wild-type, Ces1cde−/− and Ces1−/− mice. The data set is classed as in vivo. The following applies: for lower plasma AUC0-2h / reduction of Cmax: oral cabazitaxel 10 mg/kg; for Kp at 2 h / Cmax / Tmax / AUC(0-t): male, FVB, mouse, po, 10 mg/kg; for Cmax / Tmax / AUC(0-t): plasma; for AUC(0-t): read-out: AUC0-120min. The protocol:
The experiment was terminated by cardiac puncture at 2 hours. The organ collection and sample pretreatment were as described above.
Differences were considered statistically significant when P<0.05. All data are presented as geometric mean±SD.
This experiment was performed in the absence of ritonavir.

Data set [2] is described as follows: Preclinical population PK model (NONMEM) of oral cabazitaxel and ritonavir in Cyp3aXAV mice. As for the experimental part:
Population PK modeling was performed using nonlinear mixed-effects modeling in NONMEM (version 7.5.0, ICON Development Solutions, Ellicott City, MD, USA) with a gfortran compiler and Perl-speaks-NONMEM (version 5.3.0) (Beal SL SL. NONMEM user guides. Ellicott City, Maryland, USA. 1989; Lindbom et al. Comput Methods Programs Biomed. 2005). All models were fit with first order conditional estimation method with η-ε interaction (FOCE-I). Pirana (version 2.9.9) was used as a modeling interface. R (version 4.0.4) was used for data management, visual model evaluation, and analysis and visualization of simulation data.
Due to its predictive value for human hepatic CYP3A metabolism, the PK data obtained in the Cyp3aXAV mouse model was used in the current study (Damoiseaux et al. Pharmaceuticals. 2022). […] Depending on the study, each experiment was terminated by cardiac puncture at either 2 hours or 24 hours after administration.
In the development of the compartmental PK models, inclusion of model elements, such as the number of compartments, inter-individual variability (IIV), covariate effects, and residual random effects were guided by differences in objective function value (OFV), plausibility of parameter estimates, observation of trends in goodness of fit plots, and differences in estimation precision.
This well-stirred liver model assumes the liver to have a fixed volume and blood flow and hepatic clearance (CL) is calculated as a function of hepatic blood flow (Q1) and intrinsic clearance (CLi) following Eq.1.
In the variability model, it was assumed that IIV is log-normally distributed. With Eq. 5 defining the expression for the individual parameter estimate θi.
Where θpop represents population mean parameter estimate and ηi represents its individual deviation, which is distributed following N (0, ω^2). For both PK models, in was assumed that the residual error has both an additive and proportional component. The additive component of the error model was included only for observations which were designated as <LLOQ. Time points for which no quantity of either drug could be detected were discarded. For determination of the LLOQ a signal-to-noise ratio (S/N) of 10 is applied. Thus, a fixed additive error was set for observations <LLOQ which was set to 1/10th of the LLOQ for the respective compound. Consequently, individual model predictions are related to observations following Eq. 6.
Where Cobs,ij represents the observation for the ith subject and the jth measurement. With Cpred,ij the respective prediction. Both the proportional error ep, and additive error εa,ij were assumed to be distributed following N (0, σ^2). LLOQij was included as a data record, which was set to one for observations that were below the limit of quantification.
Evaluation of candidate models was based on plausibility and precision of parameter estimates, observation of trends in goodness-of-fit plots, η and ε-shrinkage, and decreases in OFV for which a change in OFV of 3.84, corresponding to α=0.05, was considered to be significant for hierarchical models. All models were required to achieve successful minimization. The predictive performance of the model was evaluated by simulating 500 datasets using the candidate models from which the 5th, 50th, and 95th percentiles were calculated, along with their 95% confidence intervals, which were compared with the 5th, 50th, and 95th of the observations using a visual predictive check (VPC). The uncertainty in the final parameter estimates was evaluated using a sampling importance-resampling (SIR) algorithm (Dosne et al. J Pharmacokinet Pharmacodyn. 2017).

The conditions of data set [3]: Cyp3a−/− compared to wild-type mice; earlier study; cited from earlier work.
Where [4] appears, read: Ces1cde−/− compared to wild-type mice.
[5] abbreviates: Ces1−/− compared to wild-type mice.
[6] abbreviates: Ces1cde−/− mice, oral 10 mg/kg cabazitaxel.
Where [7] appears, read: Ces1−/− mice, oral 10 mg/kg cabazitaxel.
[8] abbreviates: wild-type mice, oral 10 mg/kg cabazitaxel.
[9] abbreviates: wild-type mice, oral 10 mg/kg cabazitaxel, 2 h.
The mark [10] stands for this setting: cabazitaxel PK model, allometrically scaled to a 70 kg human.
[11] abbreviates: inter-individual variability, population PK model, Cyp3aXAV mice.

Read-outs that look alike come from different tables or passages of the source.

What is called Tmax is the time at which the peak concentration occurs. A word on the Cmax: it is the highest concentration seen after dosing.

`CC(C)c1nc(CN(C)C(=O)N[C@H](C(=O)N[C@@H](Cc2ccccc2)C[C@H](O)[C@H](Cc2ccccc2)NC(=O)OCc2cncs2)C(C)C)cs1` [ritonavir]: in “in vivo” (male, FVB, mouse, in vivo, po, 25 mg/kg), the Tmax is 65 min. The Cbrain in “in vivo” (wild-type mice, oral 25 mg/kg ritonavir alone, 2 h 15 min) was found to be 123 ± 57.8 pmol/g.

Turning to `CO[C@H]1C(=O)[C@]2(C)[C@@H](OC)C[C@H]3OC[C@@]3(OC(C)=O)[C@H]2[C@H](OC(=O)c2ccccc2)[C@]2(O)C[C@H](OC(=O)[C@H](O)[C@@H](NC(=O)OC(C)(C)C)c3ccccc3)C(C)=C1C2(C)C` [cabazitaxel], the “lower absolute testis concentration” value is 2.3 fold in data set [1] (Ces1cde−/− compared to wild-type mice, 2 h) and 2.6 fold in data set [1] (Ces1−/− compared to wild-type mice, 2 h). For the same compound, the results for the “lower plasma AUC0-2h” value in data set [1] (setting [4]) and in data set [1] (setting [5]) were 6.7 fold and 7.2 fold, respectively. The results for the “reduction of Cmax” value in data set [1] (setting [4]) and in data set [1] (setting [5]) were 5.4 fold and 6.0 fold, respectively. Further, the “SIC (% of dose), small intestinal content as percentage of dose” value in data set [1] (Ces1cde−/− mice, oral 10 mg/kg cabazitaxel, 2 h) is on record as 0.16 ± 0.09 % of dose; in data set [1] (Ces1−/− mice, oral 10 mg/kg cabazitaxel, 2 h) it was 0.10 ± 0.04 % of dose; in data set [1] (setting [9]), 0.11 ± 0.06 % of dose. The Kp at 2 h in data set [1] (brain, Ces1cde−/− mice, oral 10 mg/kg cabazitaxel, 2 h, read-out: Brain-to-plasma ratio) stood at 0.28 ± 0.06; in data set [1] (brain, Ces1−/− mice, oral 10 mg/kg cabazitaxel, 2 h, read-out: Brain-to-plasma ratio) it was 0.43 ± 0.06; in data set [1] (brain, wild-type mice, oral 10 mg/kg cabazitaxel, 2 h, read-out: Brain-to-plasma ratio), 0.04 ± 0.003; in data set [1] (liver, Ces1cde−/− mice, oral 10 mg/kg cabazitaxel, 2 h, read-out: Liver-to-plasma ratio), 13.1 ± 4.6; in data set [1] (liver, Ces1−/− mice, oral 10 mg/kg cabazitaxel, 2 h, read-out: Liver-to-plasma ratio) it was 14.9 ± 4.49; in data set [1] (liver, wild-type mice, oral 10 mg/kg cabazitaxel, 2 h, read-out: Liver-to-plasma ratio), 1.64 ± 0.59. Besides, the Cmax in data set [1] (setting [6]) is 1080 ± 450 nM; in data set [1] (setting [7]), 969 ± 219 nM; in data set [1] (setting [8]) it was 5830 ± 1800 nM. Moreover, the Tmax in data set [1] (setting [6]) was 25 min; in data set [1] (setting [7]), 32.5 min; in data set [1] (setting [8]) it was 25 min. Also, the figures for the AUC(0-t) in data set [1] (setting [6]), in data set [1] (setting [7]) and in data set [1] (setting [8]) were 1.03 ± 0.395 µM·h, 0.946 ± 0.22 µM·h and 6.86 ± 1.94 µM·h, respectively. Besides, the CLiver in data set [1] (setting [9]) amounted to 2035 ± 460 pmol/g. In data set [1] (setting [9]), this compound gave a Cbrain of 49.9 ± 5.96 pmol/g. The “Ka, 10 mg/kg, First-order absorption rate constant when co-administered with 10 mg/kg ritonavir” value in data set [2] (cabazitaxel PK model) is 2.62 h⁻¹. In addition, in data set [2] (cabazitaxel PK model), the “Ka, 25 mg/kg, First-order absorption rate constant when co-administered with 25 mg/kg ritonavir” value is 1.22 h⁻¹. For the same compound, the “Ka, First-order absorption rate constant” value in data set [2] (cabazitaxel PK model, Cyp3aXAV mice) was determined as 5.83 h⁻¹. In data set [2] (cabazitaxel PK model, Cyp3aXAV mice, allometrically scaled to a 70 kg human), the “CLint, Uninhibited intrinsic clearance” value amounted to 106 L/h. Besides, in data set [2] (setting [10]), the “Q2, Inter compartment clearance” value stood at 27.7 L/h. Further, the “VP, Peripheral volume” value in data set [2] (setting [10]) worked out at 613 L. The “IIV F” value in data set [2] (setting [11]) is on record as 22.7 CV %. Further, the “IIV Ka” value in data set [2] (setting [11]) was 63.4 CV %. Also, in data set [2] (population PK model, Cyp3aXAV mice, allometrically scaled to a 70 kg human), the “VC, Central volume” value is 293 L. In addition, the “previously observed difference of plasma AUC” value in data set [3] is “approximately 6 fold”.
